As usually defined, the IC50 is the midpoint of a concentration-inhibition curve.

Here are results for 53 compounds from patent publication US20250214977A1, “STAT6 INHIBITORS AND USES THEREOF” (Kymera Therapeutics, Inc., priority 2024, published 2025).

The test system of this experiment is Phosphorylation of STAT6 in human A549 cells. The experiment can be described thus: Phosphorylated STAT6 (pSTAT6) flow cytometry assay in human A549 cells. The experiment is classed as cell-based. The settings on record: read-out: STAT6 IL4 pSTAT6 assay in A549 cells: Average IC50. From the text:
Example 3. Phosphorylated STAT6 (pSTAT6) Flow Cytometry Assay in Human A549 Cells
Phosphorylation of STAT6 in human A549 cells was quantitatively measured using flow cytometry technology.

With `COc1cccnc1N1CCN(C(=O)c2cc3c(-c4cc(C#N)ccn4)cc(C4=CCCN(C(=O)CCn5ccnn5)C4)c(F)c3[nH]2)CC1` [Example I-581], the IC50 is less than 100 nM. `COc1ncccc1-c1cc(C2=CCCN(C(=O)CCn3ccnn3)C2)c(F)c2[nH]c(C(=O)N3CCN(C4CC4)CC3)cc12` [Example I-602]: the IC50 was less than 100 nM. The same measure for `COc1ccccc1N1CCN(C(=O)c2cc3c(-c4cc(F)cc(F)c4OC)cc(C4=CCCN(C(=O)CCn5ccnn5)C4)c(F)c3[nH]2)CC1` [Example I-601]: less than 100 nM; for `CCC1CCCCC1c1cc(C2=CCCN(C(=O)CCn3ccnn3)C2)c(F)c2[nH]c(C(=O)N3CCN(c4ncc(F)cc4OC)CC3)cc12` (single isomer, unassigned) [Example I-1175]: 100 to 1000 nM; for `COc1cc(F)cnc1N1CCN(C(=O)c2cc3c(/C=C/C4CCCCC4)cc(C4=CCCN(C(=O)CCn5ccnn5)C4)c(F)c3[nH]2)CC1` [Example I-1163]: 100 to 1000 nM. The same measure for `COc1ccccc1-c1cc(C2=CCCN(C(=O)CCn3ccnn3)C2)cc2cc(C(=O)N(C)C)oc12` [Example I-1103]: less than 100 nM; for `COc1ccncc1-c1cc(C2=CCCN(C(=O)CCn3ccnn3)C2)c(F)c2[nH]c(C(=O)N3CC=C(c4ccc(F)c(OC)n4)CC3)cc12` [Example I-434]: less than 100 nM; for `COc1cccnc1N1CCN(C(=O)c2cc3ccc(C4=CCCN(C(C)=O)C4)c(F)c3[nH]2)CC1` [Example I-902]: 1000 to 10000 nM. Turning to `COc1ccccc1-c1cc(C2=CCCN(C(=O)CCn3ccnn3)C2)c(F)c2[nH]c(C(=O)N3CCN(c4nccc5cnccc45)CC3)cc12` [Example I-362], the IC50 is less than 100 nM. The same measure for `COc1ccccc1-c1cc(C2=CCCN(C(=O)CCn3ccnn3)C2)c(F)c2[nH]c(C(=O)N3CCC(=O)C3)cc12` [Example I-1031]: less than 100 nM. The same measure for `COc1cc(C)ncc1-c1cc(C2=CCCN(C(=O)CCn3ccnn3)C2)c(F)c2[nH]c(C(=O)N3CCN(c4ncc(F)cc4OC)CC3)cc12` [Example I-667]: more than 100000 nM; for `CCc1cc(C)ncc1-c1cc(C2=CCCN(C(=O)CCn3cccn3)C2)c(F)c2[nH]c(C(=O)N3CCN(c4nc(C)ccc4OC)CC3)cc12` [Example I-514]: less than 100 nM; for `CN(C)C(=O)c1cc2cc(C3=CCCN(C(=O)CCn4ccnn4)C3)cc(-c3ccc4c(c3)NC(=O)C4)c2o1` [Example I-869]: less than 100 nM. Consider `CCCc1cc(C2=CCCN(C(=O)CCn3ccnn3)C2)c(F)c2[nH]c(C(=O)N3CCN(c4ncc(F)cc4OC)CC3)cc12` [Example I-693], for which the IC50 is more than 100000 nM. As for `COc1ccccc1-c1cc(C2=CCCN(C(=O)CCn3ccnn3)C2)c(F)c2[nH]c(C(=O)N3CCN(c4ncnc5[nH]cnc45)CC3)cc12` [Example I-946], the IC50 is less than 100 nM. The same measure for `CCn1ncc2c1CN(C(=O)c1cc3c(-c4ccc(C5CC5)nc4C)cc(C4=CCCN(C(=O)CCn5ccnn5)C4)c(F)c3[nH]1)C2` [Example I-762]: more than 100000 nM; for `COc1ccccc1N1CCN(C(=O)c2cc3c(-c4cnccc4OC(F)F)cc(C4=CCCN(C(=O)CCn5ccnn5)C4)c(F)c3[nH]2)CC1` [Example I-426]: less than 100 nM; for `COc1cc2ncnc(N3CCN(C(=O)c4cc5c(-c6ccccc6OC)cc(C6=CCCN(C(=O)CCn7ccnn7)C6)c(F)c5[nH]4)CC3)c2cc1O` [Example I-955]: less than 100 nM. The same measure for `COc1cc(F)cnc1N1CCN(C(=O)c2cc3c(C4=CCCCC4)cc(C4=CCCN(C(=O)CCn5ccnn5)C4)c(F)c3[nH]2)CC1` [Example I-1135]: less than 100 nM.

`CCN1CCCCC1c1cc(C2=CCCN(C(=O)CCn3ccnn3)C2)c(F)c2[nH]c(C(=O)N3CCN(c4ncc(F)cc4OC)CC3)cc12` (centres unmarked) [Example I-784]: the IC50 is less than 100 nM. Regarding `COc1cccc(F)c1-c1cc(C2=CCCN(C(C)=O)C2)c(F)c2cc(C(=O)N(C)C)oc12` [Example I-1105], the IC50 fell in the range of 100 to 1000 nM.

Regarding `CN(C)C(=O)c1cc2cc(C3=CCCN(C(=O)CCn4ccnn4)C3)cc(CN3CCNCC3)c2o1` [Example I-1179], the IC50 was less than 100 nM. Take `COc1cccnc1N1CCN(C(=O)c2cc3c(-c4cccc(F)c4OC)cc(C4=CCCN(C(=O)CCn5ccnn5)C4)c(F)c3[nH]2)CC1` [Example I-399]: the half-inhibitory concentration (IC50) is more than 100000 nM.

On to `COc1cnccc1-c1cc(C2=CCCN(C(=O)CCn3ccnn3)C2)c(F)c2[nH]c(C(=O)N3CCN(c4ncc(F)cc4OC)CC3)cc12` [Example I-666], for which the half-inhibitory concentration (IC50) was more than 100000 nM. `COc1ccc(C)cc1-c1cc(C2=CCCN(C(=O)CCn3ccnn3)C2)cc2[nH]c(C(=O)N(C)C)cc12` [Example I-1057]: the IC50 is less than 100 nM. With `CCc1cnccc1-c1cc(C2=CCCN(C(=O)CCn3ccnn3)C2)c(F)c2[nH]c(C(=O)N3CCN(c4ncccc4OC)CC3)cc12` [Example I-608], the IC50 is more than 100000 nM. As to `CC(=O)N1CCC=C(c2cc(-c3cc(C#N)ccc3C)c3cc(C(=O)N(C)C)[nH]c3c2F)C1` [Example I-884], the IC50 lay within 100 to 1000 nM. The same measure for `CCc1nc(C)ccc1-c1cc(C(=O)N2Cc3cnn(CC)c3C2)cc2cc(C3=CCCN(C(=O)CCn4ccnn4)C3)n(CC3CC3)c12` [Example I-535]: more than 100000 nM; for `COc1cccnc1N1CCN(C(=O)c2cc3c(-c4nc(C)[nH]c4C)cc(C4=CCCN(C(=O)CCn5ccnn5)C4)c(F)c3[nH]2)CC1` [Example I-572]: less than 100 nM; for `COc1cc(C)c(-c2cc(C3=CCCN(C(=O)CCn4ccnn4)C3)cc3cc(C(=O)N(C)C)oc23)cc1C` [Example I-1078]: less than 100 nM.

Consider `COc1ccccc1-c1cc(C2=CCCN(C(=O)CCn3ccnn3)C2)c(F)c2[nH]c(C(=O)N3CCN(c4ncc(C5CC5)cc4OC4CC4)CC3)cc12` [Example I-413], for which the IC50 fell in the range of 100 to 1000 nM.

As for `COc1cc(F)cnc1N1CCN(C(=O)c2cc3c(C=CC(C)(C)O)cc(C4=CCCN(C(=O)CCn5ccnn5)C4)c(F)c3[nH]2)CC1` [Example I-1110], the IC50 is less than 100 nM. The same measure for `COc1ccncc1-c1cc(C(=O)N2CCN(c3ncc(F)cc3OC)CC2)cc2cc(C3CCCN(C(=O)CCn4ccnn4)C3)[nH]c12` (centres unmarked) [Example I-1203]: 1000 to 10000 nM; for `CCc1cnc(N2CCN(C(=O)c3cc4c(-c5cnccc5OC)cc(C5=CCCN(C(=O)CCn6ccnn6)C5)c(F)c4[nH]3)CC2)c(OC)c1` [Example I-453]: less than 100 nM. Take `COc1ccccc1-c1cc(C2=CCCN(C(=O)CCn3ccnn3)C2)c(F)c2[nH]c(C(=O)N3CCN(c4c(C)nn(C)c4C#N)CC3)cc12` [Example I-775]: the half-inhibitory concentration (IC50) is less than 100 nM. The same measure for `COc1ccccc1-c1cc(C2=CCCN(C(=O)CCn3ccnn3)C2)c(F)c2[nH]c(C(=O)N3CCN(c4cnn5ccncc45)CC3)cc12` [Example I-1015]: less than 100 nM; for `COc1ccccc1-c1cc(C2=CCCN(C(=O)CCn3ccnn3)C2)c(F)c2[nH]c(C(=O)N3CCN(c4cccc(OC(F)F)n4)CC3)cc12` [Example I-927]: 100 to 1000 nM. Consider `COc1cc(F)cnc1N1CCN(C(=O)c2cc3c(-c4ccc(-c5cccnc5)cc4)cc(C4=CCCN(C(=O)CCn5ccnn5)C4)c(F)c3[nH]2)CC1` [Example I-1152], for which the IC50 was less than 100 nM.

Take `COc1ccccc1-c1cc(C2=CCCN(C(=O)CCn3ccnn3)C2)c(F)c2[nH]c(C(=O)N3CCN(c4cnccc4OC)CC3)cc12` [Example I-465]: the half-maximal inhibitory concentration (IC50) is more than 100000 nM. On to `COc1ccccc1-c1cc(C2=CCCN(C(=O)CCn3ccnn3)C2)c(F)c2[nH]c(C(=O)N3CCN(c4ccc(=O)[nH]c4C)CC3)cc12` [Example I-1022], for which the IC50 was less than 100 nM. The same measure for `CCc1cnccc1-c1cc(C(=O)N2CCN(c3ncc(F)cc3OC)CC2)cc2cc(C3=CCCN(C(=O)CCn4ccnn4)C3)n(CC3CC3)c12` [Example I-542]: more than 100000 nM; for `COc1ccccc1-c1cc(C2=CCCN(C(=O)CCn3ccnn3)C2)c(F)c2[nH]c(C(=O)N3CCc4cnn(C)c4C3)cc12` [Example I-516]: less than 100 nM.

Take `COc1ccccc1-c1cc(C2=CCCN(C(=O)CCn3ccnn3)C2)c(F)c2[nH]c(C(=O)N3CCN(c4[nH]ncc4OC)CC3)cc12` [Example I-508]: the IC50 is less than 100 nM. Regarding `COc1cccnc1N1CCN(C(=O)c2cc3c(-c4cccc(Cl)c4OC)cc(C4=CCCN(C(=O)CCn5ccnn5)C4)c(F)c3[nH]2)CC1` [Example I-411], the IC50 is more than 100000 nM.

Take `COc1ccccc1-c1cc(C2=CCCN(C(=O)CCn3ccnn3)C2)c(F)c2[nH]c(C(=O)N3CCC(c4cccnc4C)CC3)cc12` [Example I-1002]: the IC50 was less than 100 nM. Take `CCc1ccncc1-c1cc(C2=CCCN(C(=O)CCn3ccnn3)C2)c(F)c2[nH]c(C(=O)N3CCN(c4cccc(OC)n4)CC3)cc12` [Example I-480]: the IC50 is less than 100 nM. With `COc1ccccc1-c1cc(C2=CCCN(C(=O)CCn3ccnn3)C2)c(F)c2[nH]c(C(=O)N3CCN(c4ncc(Cl)cc4OC)CC3)cc12` [Example I-369], the IC50 is less than 100 nM. With `Cc1cnnn1CCC(=O)N1CCC=C(c2ccc3cc(C(=O)N(C)C)[nH]c3c2)C1` [Example I-827], the IC50 is 100 to 1000 nM.

As to `COc1cc(F)cnc1N1CCN(C(=O)c2cc3c(-c4cncc(-c5ccccc5)c4)cc(C4=CCCN(C(=O)CCn5ccnn5)C4)c(F)c3[nH]2)CC1` [Example I-647], the IC50 was less than 100 nM.

For the compound `COC(=O)C1CN(C(=O)c2cc3c(-c4ccccc4OC)cc(C4=CCCN(C(=O)CCn5ccnn5)C4)c(F)c3[nH]2)CC1C` (centres unmarked) [Example I-998], the IC50 is less than 100 nM. Take `COc1ccccc1-c1cc(C2=CCCN(C(=O)CCn3ccnn3)C2)c(F)c2[nH]c(C(=O)N3CC(Oc4ccc(F)cc4)C3)cc12` [Example I-999]: the IC50 is less than 100 nM. For the compound `COc1cccnc1N1CCN(C(=O)c2cc3c(C4=C(C)CCCC4)cc(C4=CCCN(C(=O)CCn5ccnn5)C4)c(F)c3[nH]2)CC1` [Example I-569], the IC50 was less than 100 nM. The same measure for `COc1ccccc1-c1cc(C2=CCCN(C(=O)CCn3ccnn3)C2)c(F)c2[nH]c(C(=O)N3CCN(S(C)(=O)=O)CC3)cc12` [Example I-989]: less than 100 nM.
